Source: patent US20240261273A1 (PRILENIA NEUROTHERAPEUTICS LTD., priority 2021, published 2024)

Legend:
[1] = system: optic nerve head astrocytes (ONHA); assay: ONHA oxidative stress (ROS) after tBHP, DCF fluorescence; format: cell-based, rat; settings: 0.05 μM alone, 16 h, then tBHP 80 μM 6 h
Description: CM-H2DCFDA is cleaved to form non-fluorescent H2DCF, which is then oxidized to form the fluorescent DCF. DCF levels are indicative of ROS. Cell viability was also assessed using the commonly used colorimetric MTT assay.

Sigma-1 Receptor (S1R) = Sigma-1 Receptor (S1R) (Homo sapiens (Human), UniProt Q99720); assay: In-vitro binding assay, Sigma-1 receptor (Eurofins Panlabs); settings: Cheng Prusoff equation
Sequence of Sigma-1 Receptor (S1R) (Q99720 whole entry, species assumed): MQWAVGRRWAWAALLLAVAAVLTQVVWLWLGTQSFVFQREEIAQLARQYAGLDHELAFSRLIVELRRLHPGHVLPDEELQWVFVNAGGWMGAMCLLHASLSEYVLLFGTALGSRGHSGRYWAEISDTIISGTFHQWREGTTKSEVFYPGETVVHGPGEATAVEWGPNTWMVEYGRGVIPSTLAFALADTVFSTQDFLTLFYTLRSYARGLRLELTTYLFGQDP

[2] = system: optic nerve head astrocytes (ONHA); assay: ONHA cell viability after tBHP oxidative stress, MTT assay; settings: 16 h, then tBHP 40 μM 6 h
Description: Cell viability was assessed using the MTT colorimetric assay.

RGCs = settings: two experimental glaucoma models, elevated IOP
B104 neuroblastoma cells = settings: in-situ ELISA; Geva et al. 2016; cited from earlier work

SMILES | reduction of oxidative stress (DCF fluorescence) [1] | S1R Ki (Sigma-1 Receptor (S1R)) | increase in cell viability ([2]; 0.01 μM alone) | increase in cell viability ([2]; 0.1 μM alone) | effect on RGCs (RGCs) | relation of protective effect to IOP (RGCs) | BDNF secretion in rat neuroblastoma cells (B104 neuroblastoma cells)
CCCN1CCC(O)(c2cccc(S(C)(=O)=O)c2)CC1 [Compound 1] | 5% | high affinity | neither pridopidine (0.05 μM) nor compound 1 (0.01 μM) have any effect |  |  |  | 
CCCN1CC[C@@H](c2cccc(S(C)(=O)=O)c2)[C@@H](O)C1 [Compound 4] |  | high affinity |  | neither pridopidine (0.05 μM) nor compound 4 (0.1 μM) have any effect |  |  | 
CCCN1CCC(c2cccc(S(C)(=O)=O)c2)CC1 [Pridopidine, 4-(3-(Methylsulfonyl)phenyl)-1-propylpiperidine] | 30% |  |  |  | neuroprotective effect | not mediated by lowering IOP | dose dependent increase
